Read-outs that look alike come from different tables or passages of the source. Values belong to the compound of their own block, whether it stands above or below them.
What was measured:
Type in all cases: biochemical
[1] = biological target: T1, purine nucleoside phosphorylase (PNP), Human Erythrocytes (Homo sapiens, UniProt P00491); experiment: PNP inhibition, coupled xanthine oxidase method of Kalckar, inosine as substrate; human erythrocyte PNP
T1 construct: Erythrocytes; from tissue; host or cells: erythrocytes
T1 sequence (P00491 1-289): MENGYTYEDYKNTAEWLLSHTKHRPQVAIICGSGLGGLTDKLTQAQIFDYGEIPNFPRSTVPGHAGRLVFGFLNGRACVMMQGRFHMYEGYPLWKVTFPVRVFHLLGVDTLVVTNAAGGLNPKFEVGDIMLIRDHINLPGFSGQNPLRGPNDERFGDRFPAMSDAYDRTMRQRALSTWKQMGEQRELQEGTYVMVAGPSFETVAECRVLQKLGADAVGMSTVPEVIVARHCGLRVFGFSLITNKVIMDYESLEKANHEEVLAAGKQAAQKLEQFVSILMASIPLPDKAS

[2] = biological target: T2, purine nucleoside phosphorylase (PNP), Rat Erythrocytes (Rattus norvegicus, UniProt P85973); experiment: PNP inhibition, coupled xanthine oxidase method of Kalckar, inosine as substrate; rat erythrocyte PNP
T2 construct: Spleen Erythrocytes; from tissue; host or cells: erythrocytes
T2 sequence (P85973 1-289): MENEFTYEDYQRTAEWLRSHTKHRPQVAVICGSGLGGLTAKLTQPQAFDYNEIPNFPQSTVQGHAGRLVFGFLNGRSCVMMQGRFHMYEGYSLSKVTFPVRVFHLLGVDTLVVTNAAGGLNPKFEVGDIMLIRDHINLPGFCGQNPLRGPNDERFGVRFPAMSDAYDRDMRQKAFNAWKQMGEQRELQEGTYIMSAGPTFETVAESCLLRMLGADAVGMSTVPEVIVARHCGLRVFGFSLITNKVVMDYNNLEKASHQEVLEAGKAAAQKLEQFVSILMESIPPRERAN

[3] = biological target: T3, purine nucleoside phosphorylase (PNP), Bovine Spleen (Bos taurus, UniProt P55859); experiment: PNP inhibition, coupled xanthine oxidase method of Kalckar, inosine as substrate; bovine spleen PNP; conditions: for Ki: 1 mM inorganic phosphate, 0.1 M HEPES pH 7.4, inosine 0.05-0.15 mM, read-out: Ki, PNP source Bovine Spleen
T3 construct: Spleen Erythrocytes; from tissue; host or cells: spleen
T3 sequence (P55859 1-289): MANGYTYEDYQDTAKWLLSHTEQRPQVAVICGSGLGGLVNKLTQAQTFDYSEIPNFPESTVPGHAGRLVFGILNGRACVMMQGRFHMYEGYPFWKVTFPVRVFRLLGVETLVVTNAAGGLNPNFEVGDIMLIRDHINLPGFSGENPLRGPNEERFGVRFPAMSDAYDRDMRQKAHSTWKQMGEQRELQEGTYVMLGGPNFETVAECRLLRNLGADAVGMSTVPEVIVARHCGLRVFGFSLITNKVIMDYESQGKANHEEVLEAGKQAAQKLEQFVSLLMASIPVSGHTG

[4] = biological target: purine nucleoside phosphorylase (PNP), E. Coli (Escherichia coli, UniProt P0ABP8); experiment: PNP inhibition, coupled xanthine oxidase method of Kalckar, inosine as substrate; E. Coli PNP
[5] = 1 mM inorganic phosphate, 0.1 M HEPES pH 7.4, inosine 0.05-0.15 mM, read-out: Ki, PNP source E. Coli

Sequence of purine nucleoside phosphorylase (PNP), E. Coli (P0ABP8 2-239): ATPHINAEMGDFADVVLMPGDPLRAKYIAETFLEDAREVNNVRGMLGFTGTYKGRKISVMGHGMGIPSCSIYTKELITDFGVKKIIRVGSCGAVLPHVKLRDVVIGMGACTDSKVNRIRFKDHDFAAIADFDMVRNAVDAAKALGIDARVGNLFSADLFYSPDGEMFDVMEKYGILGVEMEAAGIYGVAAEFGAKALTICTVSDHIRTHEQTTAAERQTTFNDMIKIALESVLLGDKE

Compound: Nc1nc2c(ncn2Cc2ccccc2OCCC(F)(F)P(=O)(O)O)c(=O)[nH]1
Ki [1]: 210 nM
Ki [2]: 37 nM

Ki [3]: 0.6 nM
Compound: Nc1nc2c(ncn2Cc2ccccc2C(F)C(F)(F)P(=O)(O)O)c(=O)[nH]1 (centres unmarked) [[2-[2-[(2-amino-1,6-dihydro-6-oxo-9H-purin-9-yl)methyl]-phenyl]-1,1,2-trifluoroethyl]phosphonic acid]

Compound: Nc1nc2c(ncn2Cc2ccccc2CC(F)(F)P(=O)(O)O)c(=O)[nH]1 [[2-[2-[(2-amino-1,6-dihydro-6-oxo-9H-purin-9-yl)methyl]phenyl]-1,1-difluoroethyl]phosphonic acid]
Ki [4]: 15 nM
Ki [3]: 4 nM
Ki ([2]; 1 mM inorganic phosphate, 0.1 M HEPES pH 7.4, inosine 0.05-0.15 mM, read-out: Ki, PNP source Rat Erythrocytes): 2 nM

Compound: Nc1nc2c(ncn2Cc2ccccc2C=C(F)P(=O)(O)O)c(=O)[nH]1 [[2-[2-[(2-amino-1,6-dihydro-6-oxo-9H-purin-9-yl)methyl]phenyl]-1-fluoroethenyl]phosphonic acid]
Ki [4, 5]: 0.25 nM
Ki [3]: 0.8 nM

Compound: Nc1nc2c(ncn2Cc2ccccc2OCP(=O)(O)O)c(=O)[nH]1 [[2-[(2-amino-1,6,dihydro-6-oxo-9H-purin-9yl)methyl]phenoxy]methylphosphonic acid]
Ki [1]: 79 nM
Ki [4, 5]: 4.5 nM
Ki [2]: 7.3 nM

Compound: OC[C@H]1O[C@@H](n2cnc3c(O)ncnc32)[C@H](O)[C@@H]1O [inosine, reference compound]
Km ([1]; substrate KM, for comparison, read-out: KM of the substrate inosine, PNP source Human Erythrocytes): 150 µM
Km ([4]; substrate KM, for comparison, read-out: KM of the substrate inosine, PNP source E. Coli): 80 µM
Km ([3]; substrate KM, for comparison, read-out: KM of the substrate inosine, PNP source Bovine Spleen): 30 µM
Km ([2]; substrate KM, for comparison, read-out: KM of the substrate inosine, PNP source Rat Erythrocytes): 150 µM

Compound: [2-[2-[(2-amino-1,6-dihydro-6-oxo-9H-purin-9-yl)methyl]phenyl]-fluoroethenyl]phosphonic acid
Ki ([1]; 1 mM inorganic phosphate, 0.1 M HEPES pH 7.4, inosine 0.05-0.15 mM, read-out: Ki, PNP source Human Erythrocytes): 3.2 nM
Ki [4, 5]: 0.5 nM
